Results as given in patent publication US20130252956A1, “METHODS OF TREATING CANCER” (priority 2010, published 2013).

Experiments:
[1] = tested on: unresectable/metastatic HCC; experiment: Antitumour activity (time to progression by modified RECIST) in patients dosed at the maximum tolerated dose; assay type: in vivo, human; conditions: 38 evaluable patients at the maximum tolerated dose (30 mg OD); 95% confidence intervals (2.8, not achieved)
Text: To enable a more accurate description of the potential clinical benefit of foretinib in patients with HCC, the method of tumor evaluation was changed to incorporate the mRECIST criteria for HCC as proposed by Llovet et al (Llovet, et al. 2008 supra) and further described by Lencioni & Llovet (Lencioni & Llovet Modified RECIST (mRECIST) Assessment for Hepatocellular Carcinoma. Seminars in Liver Disease. 2010; 30:52-60) in addition to the standard RECIST assessment.
The primary endpoint for assessing antitumor activity will be response rate (CR+PR) according to mRECIST (Lencioni, 2010), assessed by independent, central, radiological review, in subjects with advanced (unresectable and/or metastatic) HCC treated with foretinib at the maximum tolerated dose. […]
Tumor response for subjects with measurable lesions should be assessed routinely as specified in the table below. Serial CT-scans (preferred) or MRI will be evaluated for response (CR or PR) and SD according to mRECIST (Lecioni, 2010) and RECIST 1.0 (Therasse, et al. New guidelines to evaluate the response to treatment in solid tumors. European Organization for Research and Treatment of Cancer, National Cancer Institute of the United States, National Cancer Institute of Canada. J Natl Cancer Inst. 2000; 92:205-16.). […]

[2] = Phase I dose escalation/expanded cohort study of oral foretinib in HCC patients: safety, dose-limiting toxicities, maximum tolerated dose; conditions: human, in vivo
Protocol: Each treatment cycle will consist of 21 consecutive days. Subjects enrolled in this study will receive oral foretinib administered once daily. Blood samples for PK analysis will be obtained before and after dosing on Days 1 and 15 of Treatment Period 1 in both the Dose-Escalation and Expanded Cohort Phases. For subjects in the Expanded Cohort Phase, no dose will be administered on Days 2 and 3 of Treatment Period 1 to allow the pharmacokinetics of foretinib to be assessed over a 72 hour interval after the first dose. Subjects will continue to receive study drug until disease progression or withdrawal from study because of unacceptable toxicity or other reasons (e.g., withdrawal of consent, noncompliance). Disease progression is defined as objective disease progression according to mRECIST and/or clinical progression (e.g. emergence of significant new disease-related symptoms and/or significant deterioration of pre-existing disease-related symptoms requiring treatment; or deterioration of ECOG performance status by 2 units—see Appendix 3). For the purpose of the final analysis, the duration of the study is planned to be 2 years after enrollment is completed.
Patients with measurable unresectable/metastatic HCC, no prior sorafenib or other multi-kinase inhibitors, ECOG PS 0-1, adequate organ function and Child-Pugh grade A are eligible for enrolment. […]

first-line advanced HCC = first-line advanced HCC patients treated with sorafenib; 95% CI (2.6, 3.6); cited from earlier work

SMILES | Median time-to-progression using modified-RECIST [1] | Dose-limiting toxicities [2] | Dose-limiting toxicities (renal failure, proteinuria), patients affected [2] | Median time to progression (first-line advanced HCC)
COc1cc2c(Oc3ccc(NC(=O)C4(C(=O)Nc5ccc(F)cc5)CC4)cc3F)ccnc2cc1OCCCN1CCOCC1 [foretinib, N^1-{3-fluoro-4-[(6-(methyloxy)-7-{[3-(4-morpholinyl)propyl]oxy}-4-quinolinyl)oxy]phenyl}-N^1-(4-fluorophenyl)-1,1-cyclopropanedicarboxamide] | 4.5 months | no dose limiting toxicities were observed | 2/6 | –
CNC(=O)c1cc(Oc2ccc(NC(=O)Nc3ccc(Cl)c(C(F)(F)F)c3)cc2)ccn1 [sorafenib, 4-[4-[[4-chloro-3-(trifluoromethyl)phenyl]carbamoylamino]phenoxy]-N-methyl-pyridine-2-carboxamide] | – | – | – | 2.8 months
